Assay results taken from ChEMBL document CHEMBL1129164, “Molecular design, chemical synthesis and biological studies of novel enediynes related to dynemicin a” (Bioorg Med Chem Lett, 1996).
Values after ≈ are worked out from the molar mass of the structure shown.

Key:
Type in all cases: functional, cell-based
COLO 205 = experiment: In vitro growth inhibition of COLO 205 (colon cell line) human tumor cells.
HepG2 = experiment: In vitro growth inhibition of Hep G2 ([…] line) human tumor cells.
MOLT-4 = experiment: In vitro growth inhibition of Molt-4 (leukemia cell line) human tumor cells.
SK-BR-3 = experiment: In vitro growth inhibition of SK-BR-3 (breast cancer cell line) human tumor cells.

Structure (SMILES)	IC50 (COLO 205) [µg/mL]	IC50 (HepG2) [µg/mL]	IC50 (MOLT-4) [µg/mL]	IC50 (SK-BR-3) [µg/mL]
CCOC(=O)N1c2ccccc2C(=O)CC1C#C/C=C\C#CCS(=O)(=O)c1ccccc1 (stereo not drawn)	53 (≈ 119 µM)	50.2 (≈ 112 µM)	5.63 (≈ 12.6 µM)	43.9 (≈ 98 µM)
CCOC(=O)N1c2ccccc2[C@@H](O)[C@H](O)C1C#C/C=C\C#CCS(=O)(=O)c1ccccc1 (stereo partly drawn)	49.7 (≈ 107 µM)	57.8 (≈ 124 µM)	10.2 (≈ 21.9 µM)	46.7 (≈ 100 µM)
CCOC(=O)N1c2ccccc2[C@@H](S(=O)(=O)c2ccccc2)[C@H](O)C1C#Cc1ccccc1C#CCS(=O)(=O)c1ccccc1 (stereo partly drawn)	5.33 (≈ 8.33 µM)	3.75 (≈ 5.86 µM)	0.73 (≈ 1.14 µM)	6.26 (≈ 9.79 µM)
CCOC(=O)N1c2ccccc2[C@@H]2O[C@@H]2C1C#C/C=C\C#CCS(=O)(=O)c1ccccc1 (stereo partly drawn)	26 (≈ 58 µM)	9.01 (≈ 20.1 µM)	5.5 (≈ 12.3 µM)	19.5 (≈ 43.5 µM)
C#CC1[C@H]2O[C@H]2c2ccccc2N1C(=O)OCC (stereo partly drawn)	> 100	> 100	66.5 (≈ 274 µM)	> 100
CCOC(=O)N1c2ccccc2[C@@H]2O[C@@H]2C1C#Cc1ccccc1C#CCS(=O)(=O)c1ccccc1 (stereo partly drawn)	9.59 (≈ 19.3 µM)	8.91 (≈ 17.9 µM)	4.64 (≈ 9.33 µM)	9.23 (≈ 18.6 µM)
CCOC(=O)N1c2ccccc2C(=O)CC1C#Cc1ccccc1C#CCS(=O)(=O)c1ccccc1 (stereo not drawn)	50.1 (≈ 101 µM)	70 (≈ 141 µM)	7.26 (≈ 14.6 µM)	53.6 (≈ 108 µM)
